From ChEMBL document CHEMBL1134304, “Discovery of novel p-arylthio cinnamides as antagonists of leukocyte function-associated antigen-1/intercellular adhesion molecule-1 interaction. 4. Structure-activity relationship of substituents on the benzene ring of the cinnamide” (J Med Chem, 2001)

How the values were obtained:
[1] = target: T1, Integrin alpha-L (Homo sapiens, UniProt P20701); assay: Inhibition of intercellular adhesion molecule-1 (ICAM-1) binding to recombinant LFA-1, range(130-170)
T1 sequence (P20701 whole entry): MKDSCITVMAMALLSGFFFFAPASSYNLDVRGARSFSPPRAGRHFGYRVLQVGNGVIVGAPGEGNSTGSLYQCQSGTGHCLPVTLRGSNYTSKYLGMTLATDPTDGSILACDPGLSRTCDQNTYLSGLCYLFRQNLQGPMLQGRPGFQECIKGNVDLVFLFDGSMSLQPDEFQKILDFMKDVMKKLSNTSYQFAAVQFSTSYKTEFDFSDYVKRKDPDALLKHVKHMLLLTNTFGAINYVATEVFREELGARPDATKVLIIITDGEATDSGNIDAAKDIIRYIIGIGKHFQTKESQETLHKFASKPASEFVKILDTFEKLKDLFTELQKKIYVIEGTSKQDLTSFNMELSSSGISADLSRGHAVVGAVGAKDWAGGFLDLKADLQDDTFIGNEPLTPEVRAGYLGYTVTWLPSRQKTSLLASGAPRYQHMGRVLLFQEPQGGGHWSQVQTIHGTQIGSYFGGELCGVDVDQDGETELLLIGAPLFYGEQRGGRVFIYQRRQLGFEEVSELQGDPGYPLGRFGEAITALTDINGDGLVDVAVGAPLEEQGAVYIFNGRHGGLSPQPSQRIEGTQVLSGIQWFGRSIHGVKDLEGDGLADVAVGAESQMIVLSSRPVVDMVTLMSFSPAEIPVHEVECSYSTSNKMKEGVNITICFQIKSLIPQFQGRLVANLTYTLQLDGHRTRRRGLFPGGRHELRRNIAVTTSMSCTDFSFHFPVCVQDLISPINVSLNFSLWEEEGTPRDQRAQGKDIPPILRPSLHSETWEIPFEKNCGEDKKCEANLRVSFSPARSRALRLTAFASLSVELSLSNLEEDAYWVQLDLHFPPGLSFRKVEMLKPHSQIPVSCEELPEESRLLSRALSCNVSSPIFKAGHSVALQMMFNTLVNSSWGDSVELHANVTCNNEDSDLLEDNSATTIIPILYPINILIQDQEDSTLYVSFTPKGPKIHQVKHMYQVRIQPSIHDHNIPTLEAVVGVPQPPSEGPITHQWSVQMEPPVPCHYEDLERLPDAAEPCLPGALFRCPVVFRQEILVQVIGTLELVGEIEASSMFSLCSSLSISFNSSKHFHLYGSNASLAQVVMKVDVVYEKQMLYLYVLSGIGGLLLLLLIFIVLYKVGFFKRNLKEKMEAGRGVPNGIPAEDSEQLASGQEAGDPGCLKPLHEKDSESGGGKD

[2] = target: Intercellular adhesion molecule (ICAM-1), Integrin alpha-L/beta-2 (Homo sapiens, UniProt P05107+P20701); assay: Inhibition of LFA-1 mediated JY-8 cell adhesion to ICAM-1, range (6-100); assay type: functional, cell-based
Chain of Intercellular adhesion molecule (ICAM-1), Integrin alpha-L/beta-2 (P05362 whole entry, one chain of several, further chain): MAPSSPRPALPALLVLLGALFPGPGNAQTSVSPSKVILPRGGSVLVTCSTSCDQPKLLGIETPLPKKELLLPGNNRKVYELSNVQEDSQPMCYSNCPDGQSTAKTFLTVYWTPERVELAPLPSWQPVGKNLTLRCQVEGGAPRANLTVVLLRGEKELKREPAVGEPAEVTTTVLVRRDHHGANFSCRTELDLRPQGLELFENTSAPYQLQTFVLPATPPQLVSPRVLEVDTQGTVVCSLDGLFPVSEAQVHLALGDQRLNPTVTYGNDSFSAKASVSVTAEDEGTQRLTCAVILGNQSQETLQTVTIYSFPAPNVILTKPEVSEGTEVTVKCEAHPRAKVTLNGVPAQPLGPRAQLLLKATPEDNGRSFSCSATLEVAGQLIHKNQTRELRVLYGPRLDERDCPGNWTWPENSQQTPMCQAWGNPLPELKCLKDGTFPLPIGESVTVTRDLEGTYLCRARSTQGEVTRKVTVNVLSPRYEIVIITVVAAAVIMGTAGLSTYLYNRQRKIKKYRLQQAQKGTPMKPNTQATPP
Chain of Intercellular adhesion molecule (ICAM-1), Integrin alpha-L/beta-2 (P05107 whole entry, one chain of several): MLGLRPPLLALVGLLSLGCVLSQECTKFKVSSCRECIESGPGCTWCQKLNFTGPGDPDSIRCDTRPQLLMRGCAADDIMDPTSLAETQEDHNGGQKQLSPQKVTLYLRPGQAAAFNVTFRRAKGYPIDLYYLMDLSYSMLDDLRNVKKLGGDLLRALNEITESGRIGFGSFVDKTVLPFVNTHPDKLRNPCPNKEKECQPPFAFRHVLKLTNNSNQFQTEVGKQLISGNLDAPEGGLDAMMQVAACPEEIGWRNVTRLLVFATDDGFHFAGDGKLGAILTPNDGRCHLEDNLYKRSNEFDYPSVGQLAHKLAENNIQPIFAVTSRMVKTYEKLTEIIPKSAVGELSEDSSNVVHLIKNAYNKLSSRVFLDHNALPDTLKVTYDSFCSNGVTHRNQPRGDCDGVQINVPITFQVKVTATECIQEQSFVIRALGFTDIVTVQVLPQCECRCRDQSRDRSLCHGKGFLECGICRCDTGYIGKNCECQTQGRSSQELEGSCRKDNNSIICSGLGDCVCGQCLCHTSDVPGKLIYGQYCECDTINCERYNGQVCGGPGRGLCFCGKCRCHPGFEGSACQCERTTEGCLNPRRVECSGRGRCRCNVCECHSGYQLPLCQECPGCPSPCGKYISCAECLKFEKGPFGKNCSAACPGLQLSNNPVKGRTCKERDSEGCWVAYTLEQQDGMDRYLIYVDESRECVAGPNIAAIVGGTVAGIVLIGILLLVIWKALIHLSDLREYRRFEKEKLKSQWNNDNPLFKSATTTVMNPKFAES

COc1ccccc1Sc1ccc(/C=C/C(=O)N2CCOCC2)cc1Cl
IC50 [1]: 0.15 µM
IC50 [2]: 0.04 µM
